# Assay results: patent US10174024B2, “5H-pyrido[3,2-B]indole compounds as anticancer agents” (BRISTOL-MYERS SQUIBB COMPANY, priority 2015, dated 2019)
# Biological target: BRD4 (Homo sapiens, UniProt O60885)
# Test: Time Resolved Fluorescence Resonance Energy Transfer (TR-FRET) binding assay, FRET BRD4
# Settings: FRET BRD4 IC50 (nM), one of the FRET assays described (BRD4 bromodomain construct not specified)
row,Compound,IC50 [nM]
1,"[2H]C([2H])([2H])c1nnn(C)c1-c1cnc2c3ccc(C4(O)CCN(C)CC4)c(F)c3n([C@H](c3ccccc3)C3CCOCC3)c2c1 [Example 54, 4-{6-Fluoro-3-[4-(^2H3)methyl-1-methyl-1H-1,2,3-triazol-5-yl]-5-[(S)-oxan-4-yl(phenyl)methyl]-5H-pyrido[3,2-b]indol-7-yl}-1-methylpiperidin-4-ol]",< 1

# Same assay, conditions: one of the FRET assays described (BRD4 bromodomain construct not specified); read-out: FRET BRD4 IC50
row,Compound,IC50 [nM]
1,"[2H]C([2H])([2H])c1nnn(C)c1-c1cnc2c3cc(N4CCc5ccccc5C4)ccc3n([C@H](c3ccc(F)cc3)C3CCOCC3)c2c1 [Example 43, 2-{5-[(S)-(4-Fluorophenyl)(oxan-4-yl)methyl]-3-[4-(^2H3)methyl-1-methyl-1H-1,2,3-triazol-5-yl]-5H-pyrido[3,2-b]indol-8-yl}-1,2,3,4-tetrahydroisoquinoline]",< 5
2,"Cc1nnn(C)c1-c1cnc2c3ccc(N4CCS(=O)(=O)CC4)cc3n([C@H](c3ccccc3)C3CCOCC3)c2c1 [Example 44, 4-[3-(Dimethyl-1H-1,2,3-triazol-5-yl)-5-[(S)-oxan-4-yl(phenyl)methyl]-5H-pyrido[3,2-b]-indol-7-yl]-1λ^6-thiomorpholine-1,1-dione]",< 1
3,"[2H]C([2H])([2H])c1nnn(C)c1-c1cnc2c3ccc(N4CCS(=O)(=O)CC4)cc3n([C@H](c3ccccc3)C3CCOCC3)c2c1 [Example 45, 4-{3-[4-(^2H3)Methyl-1-methyl-1H-1,2,3-triazol-5-yl]-5-[(S)-oxan-4-yl(phenyl)methyl]-5H-pyrido[3,2-b]indol-7-yl}-1λ^6-thiomorpholine-1,1-dione]",< 5
4,"[2H]C([2H])([2H])c1nnn(C)c1-c1cnc2c3ccc(N4CCN(S(C)(=O)=O)CC4)cc3n([C@H](c3ccccc3)C3CCOCC3)c2c1 [Example 46, 1-Methanesulfonyl-4-{3-[4-(^2H3)methyl-1-methyl-1H-1,2,3-triazol-5-yl]-5-[(S)-oxan-4-yl(phenyl)methyl]-5H-pyrido[3,2-b]indol-7-yl}piperazine]",< 1
5,"Cc1nnn(C)c1-c1cnc2c3ccc(N4CCN(C5CCN(C)CC5)CC4)cc3n([C@H](c3ccccc3)C3CCOCC3)c2c1 [Example 48, 1-[3-(Dimethyl-1H-1,2,3-triazol-5-yl)-5-[(S)-oxan-4-yl(phenyl)methyl]-5H-pyrido[3,2-b]indol-7-yl]-4-(1-methylpiperidin-4-yl)piperazine]",< 1
6,"Cc1nnn(C)c1-c1cnc2c3ccc(N4CCN(C(=O)N(C)C)CC4)cc3n([C@H](c3ccccc3)C3CCOCC3)c2c1 [Example 49, 4-[3-(Dimethyl-1H-1,2,3-triazol-5-yl)-5-[(S)-oxan-4-yl(phenyl)methyl]-5H-pyrido[3,2-b]indol-7-yl]-N,N-dimethylpiperazine-1-carboxamide]",< 5
7,"Cc1nnn(C)c1-c1cnc2c3ccc(N4CCN(S(=O)(=O)N(C)C)CC4)cc3n([C@H](c3ccccc3)C3CCOCC3)c2c1 [Example 50, 4-[3-(Dimethyl-1H-1,2,3-triazol-5-yl)-5-[(S)-oxan-4-yl(phenyl)methyl]-5H-pyrido[3,2-b]indol-7-yl]-N,N-dimethylpiperazine-1-sulfonamide]",< 5
8,"[2H]C([2H])([2H])c1nnn(C)c1-c1cnc2c3cc(N4CCS(=O)(=O)[C@H](C)C4)ccc3n([C@H](c3ccccc3F)C3CCOCC3)c2c1 [Example 51, (2R)-4-{5-[(S)-(2-Fluorophenyl)(oxan-4-yl)methyl]-3-[4-(^2Ha)methyl-1-methyl-1H-1,2,3-triazol-5-yl]-5H-pyrido[3,2-b]indol-8-yl}-2-methyl-1λ^6,4-thiomorpholine-1,1-dione]",< 1
9,"[2H]C([2H])([2H])c1nnn(C)c1-c1cnc2c3cc(N4CCS(=O)(=O)[C@@H](C)C4)ccc3n([C@H](c3ccccc3F)C3CCOCC3)c2c1 [Example 52, (2S)-4-{5-[(S)-(2-Fluorophenyl)(oxan-4-yl)methyl]-3-[4-(^2H3)methyl-1-methyl-1H-1,2,3-triazol-5-yl]-5H-pyrido[3,2-b]indol-8-yl}-2-methyl-11λ^6,4-thiomorpholine-1,1-dione]",< 1
10,"[2H]C([2H])([2H])c1nnn(C)c1-c1cnc2c3ccc(C4(O)CCNCC4)c(F)c3n([C@H](c3ccccc3)C3CCOCC3)c2c1 [Example 53, 4-{6-Fluoro-3-[4-(^2H3)methyl-1-methyl-1H-1,2,3-triazol-5-yl]-5-[(S)-oxan-4-yl(phenyl)methyl]-5H-pyrido[3,2-b]indol-7-yl}piperidin-4-ol]",< 1
11,"[2H]C([2H])([2H])c1nnn(C)c1-c1cnc2c3ccc(C4(C)COC(=O)N4)c(F)c3n([C@H](c3ccccc3)C3CCOCC3)c2c1 (stereo partly drawn) [Example 55, 4-{6-Fluoro-3-[4-(^2H3)methyl-1-methyl-1H-1,2,3-triazol-5-yl]-5-[(S)-oxan-4-yl(phenyl)methyl]-5H-pyrido[3,2-b]indol-7-yl}-4-methyl-1,3-oxazolidin-2-one]",< 1
12,"[2H]C([2H])([2H])c1nnn(C)c1-c1cnc2c3ccc(C4(C)COC(=O)N4)c(F)c3n([C@H](c3ccccc3)C3CCOCC3)c2c1 (stereo partly drawn) [Example 56, 4-{6-Fluoro-3-[4-(^2H3)methyl-1-methyl-1H-1,2,3-triazol-5-yl]-5-[(S)-oxan-4-yl(phenyl)methyl]-5H-pyrido[3,2-b]indol-7-yl}-4-methyl-1,3-oxazolidin-2-one]",< 1
13,"[2H]C([2H])([2H])c1nnn(C)c1-c1cnc2c3ccc(N4CCCC4=O)c(F)c3n([C@H](c3ccccc3)C3CCOCC3)c2c1 [Example 57, 1-{6-Fluoro-3-[4-(^2H3)methyl-1-methyl-1H-1,2,3-triazol-5-yl]-5-[(S)-oxan-4-yl(phenyl)methyl]-5H-pyrido[3,2-b]indol-7-yl}pyrrolidin-2-one]",< 1
14,"[2H]C([2H])([2H])c1nnn(C)c1-c1cnc2c3ccc(N4CCCS4(=O)=O)c(F)c3n([C@H](c3ccccc3)C3CCOCC3)c2c1 [Example 58, 2-{6-Fluoro-3-[4-(^2H3)methyl-1-methyl-1H-1,2,3-triazol-5-yl]-5-[(S)-oxan-4-yl(phenyl)methyl]-5H-pyrido[3,2-b]indol-7-yl}-1λ^6,2-thiazolidine-1,1-dione]",< 1
15,"[2H]C([2H])([2H])c1nnn(C)c1-c1cnc2c3ccc(N4CCNC4=O)c(F)c3n([C@H](c3ccccc3)C3CCOCC3)c2c1 [Example 59, 1-{6-Fluoro-3-[4-(^2H3)methyl-1-methyl-1H-1,2,3-triazol-5-yl]-5-[(S)-oxan-4-yl(phenyl)methyl]-5H-pyrido[3,2-b]indol-7-yl}imidazolidin-2-one]",< 5
16,"[2H]C([2H])([2H])c1nnn(C)c1-c1cnc2c3ccc(N4CCOC4=O)c(F)c3n([C@H](c3ccccc3)C3CCOCC3)c2c1 [Example 60, 3-{6-Fluoro-3-[4-(^2H3)methyl-1-methyl-1H-1,2,3-triazol-5-yl]-5-[(S)-oxan-4-yl(phenyl)methyl]-5H-pyrido[3,2-b]indol-7-yl}-1,3-oxazolidin-2-one]",< 1
17,"[2H]C([2H])([2H])c1nnn(C)c1-c1cnc2c3ccc(N4CCCS4(=O)=O)c(F)c3n([C@H](c3ncccc3F)C3CCOCC3)c2c1 [Example 61, 2-{6-Fluoro-5-[(S)-(3-fluoropyridin-2-yl)(oxan-4-yl)methyl]-3-[4-(^2H3)methyl-1-methyl-1H-1,2,3-triazol-5-yl]-5H-pyrido[3,2-b]indol-7-yl}-1λ^6,2-thiazolidine-1,1-dione]",< 5
18,"[2H]C([2H])([2H])c1nnn(C)c1-c1cnc2c3ccc(C4(O)CCOCC4)c(F)c3n([C@H](c3ccccc3)C3CCOCC3)c2c1 [Example 62, 4-{6-Fluoro-3-[4-(^2H3)methyl-1-methyl-1H-1,2,3-triazol-5-yl]-5-[(S)-oxan-4-yl(phenyl)methyl]-5H-pyrido[3,2-b]indol-7-yl}oxan-4-ol]",< 1
19,"[2H]C([2H])([2H])c1nnn(C)c1-c1cnc2c3ccc(C4(O)CCOC4)c(F)c3n([C@H](c3ccccc3)C3CCOCC3)c2c1 (stereo partly drawn) [Example 63, 3-{6-Fluoro-3-[4-(^2H3)methyl-1-methyl-1H-1,2,3-triazol-5-yl]-5-[(S)-oxan-4-yl(phenyl)methyl]-5H-pyrido[3,2-b]indol-7-yl}oxolan-3-ol]",< 1
20,"[2H]C([2H])([2H])c1nnn(C)c1-c1cnc2c3ccc(C4(O)CCOC4)c(F)c3n([C@H](c3ccccc3)C3CCOCC3)c2c1 (stereo partly drawn) [Example 64, 3-{6-Fluoro-3-[4-(^2H3)methyl-1-methyl-1H-1,2,3-triazol-5-yl]-5-[(S)-oxan-4-yl(phenyl)methyl]-5H-pyrido[3,2-b]indol-7-yl}oxolan-3-ol]",< 1
21,"[2H]C([2H])([2H])c1nnn(C)c1-c1cnc2c3ccc(N4CCC(F)(F)CC4)cc3n(C(c3ncccc3F)C3CCOCC3)c2c1 (stereo not shown) [Example 65, 2-{[7-(4,4-Difluoropiperidin-1-yl)-3-[4-(^2H3)methyl-1-methyl-1H-1,2,3-triazol-5-yl]-5H-pyrido[3,2-b]indol-5-yl](oxan-4-yl)methyl}-3-fluoropyridine]",< 1
22,"[2H]C([2H])([2H])c1nnn(C)c1-c1cnc2c3ccc(N4CCC(F)(F)CC4)cc3n(C(c3ncccc3F)C3CCOCC3)c2c1 (stereo not shown) [Example 66, 2-{[7-(4,4-Difluoropiperidin-1-yl)-3-[4-(^2H3)methyl-1-methyl-1H-1,2,3-triazol-5-yl]-5H-pyrido[3,2-b]indol-5-yl](oxan-4-yl)methyl}-3-fluoropyridine]",< 5
23,"[2H]C([2H])([2H])c1nnn(C)c1-c1cnc2c3ccc(N4CCS(=O)(=O)CC4)cc3n(C(c3ncccc3F)C3CCOCC3)c2c1 (stereo not shown) [Example 67, 4-{5-[(3-Fluoropyridin-2-yl)(oxan-4-yl)methyl]-3-[4-(^2H3)methyl-1-methyl-1H-1,2,3-triazol-5-yl]-5H-pyrido[3,2-b]indol-7-yl}-1λ^6,4-thiomorpholine-1,1-dione]",< 5
24,"[2H]C([2H])([2H])c1nnn(C)c1-c1cnc2c3ccc(N4CCC(S(C)(=O)=O)CC4)cc3n(C(c3ncccc3F)C3CCOCC3)c2c1 (stereo not shown) [Example 69, 3-Fluoro-2-{[7-(4-methanesulfonylpiperidin-1-yl)-3-[4-(^2H3)methyl-1-methyl-1H-1,2,3-triazol-5-yl]-5H-pyrido[3,2-b]indol-5-yl](oxan-4-yl)methyl}pyridine]",< 1
